Consider one molecule from patent US20120277298A1, “FLAVANONES-CONTAINING FOOD COMPOSITIONS” (NESTEC S.A., priority 2009, published 2012).

A short description of this series: Particle size distribution of hesperidin by laser diffraction (Malvern Mastersizer 2000). In kind it is physicochemical. As to the method:
The particle size distribution is observed using a microscopy optic LEICA DMR (mode Differential Interference Contrast and polarisation). The particle size distribution is measured by laser diffraction using a Malvern Mastersizer 2000.

Turning to `COc1ccc([C@@H]2CC(=O)c3c(O)cc(O[C@@H]4O[C@H](CO[C@@H]5O[C@@H](C)[C@H](O)[C@@H](O)[C@H]5O)[C@@H](O)[C@H](O)[C@H]4O)cc3O2)cc1O` [Commercially available hesperidin, hesperidin], where the note is “0.1% hesperidin in water, Example 1”, the “% of cumulative distribution of hesperidin particle size below 20 microns” value is 40%. Moreover, the “% of cumulative distribution < 20 microns of hesperidin in water” value (hesperidin in water, Example 4) was “Average 40%”.
